Assay results published in patent US11472798B2 (Mission Therapeutics Limited, priority 2014, dated 2022).

Biological target: T1, UCHL1 (Homo sapiens, UniProt P09936)
T1 construct: made in house; host or cells: HEK293T
T1 sequence (P09936 1-223): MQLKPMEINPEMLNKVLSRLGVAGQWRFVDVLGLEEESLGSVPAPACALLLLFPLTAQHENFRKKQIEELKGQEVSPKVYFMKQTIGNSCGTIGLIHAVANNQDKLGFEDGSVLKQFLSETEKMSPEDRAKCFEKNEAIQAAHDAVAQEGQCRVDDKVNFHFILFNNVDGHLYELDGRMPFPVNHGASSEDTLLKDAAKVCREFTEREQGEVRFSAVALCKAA
Test: UCHL1 biochemical IC50 assay (fluorescence polarisation)
Settings: 30 min enzyme/compound pre-incubation at room temp, read after 2 hr incubation, read-out: Activity range (UCHL1 biochemical IC50 assay)
How it was run: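 FLAG-UCHL1 purified from transfected HEK293T cells was preincubated 30 min at room temperature with compound (8 points, 100–0.03 μM final) in Tris pH 7.5 buffer with Tween 20, BSA and beta-mercaptoethanol. Reaction started with 50 nM TAMRA-peptide–ubiquitin isopeptide substrate; fluorescence polarisation (ex 540/em 590 nm) read at once and after 2 h.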

Row | Structure (SMILES) | IC50
1 | CC(C)(C)c1cc(NC(=O)C2CCN(C#N)C2)[nH]n1 (centres unmarked) [Example 17, N-(3-(tert-butyl)-1H-pyrazol-5-yl)-1-cyano-pyrrolidine-3-carboxamide] | 1000 to 10000 nM
2 | N#CN1CC[C@H](C(=O)Nc2ncc(N3CCCCC3)s2)C1 [Example 96, (S)-1-cyano-N-(5-(piperidin-1-yl)thiazol-2-yl)pyrrolidine-3-carboxamide] | < 1000 nM
3 | CC1(C(=O)Nc2cn(-c3ccccc3)cn2)CCN(C#N)C1 (centres unmarked) [Example 79, 1-cyano-3-methyl-N-(1-phenyl-1H-imidazol-4-yl)pyrrolidine-3-carboxamide] | 10000 to 30000 nM
4 | N#Cc1ccc(-n2cnc(NC(=O)[C@H]3CCN(C#N)C3)c2)cc1 [Example 177, (S)-1-cyano-N-(1-(4-cyanophenyl)-1H-imidazol-4-yl)pyrrolidine-3-carboxamide] | < 1000 nM
5 | CNC(=O)c1ccccc1-n1cnc(NC(=O)[C@H]2CCN(C#N)C2)c1 [Example 157, (S)-1-cyano-N-(1-(2-(methylcarbamoyl)phenyl)-1H-imidazol-4-yl)pyrrolidine-3-carboxamide] | 1000 to 10000 nM
6 | Cc1noc(C)c1-c1cc2sc(NC(=O)[C@H]3CCN(C#N)C3)nc2cn1 [Example 296, (S)-1-cyano-N-(6-(3,5-dimethylisoxazol-4-yl)thiazolo[4,5-c]pyridin-2-yl)pyrrolidine-3-carboxamide] | 10000 to 30000 nM
7 | Cc1noc(C)c1-c1ccc2nc(NC(=O)[C@H]3CCN(C#N)C3)cn2c1C [Example 137, (S)-1-cyano-N-(6-(3,5-dimethylisoxazol-4-yl)-5-methylimidazo[1,2-a]pyridin-2-yl)pyrrolidine-3-carboxamide] | < 1000 nM
8 | Cc1ccc2nc(NC(=O)C3CCN(C#N)C3)sc2c1 (centres unmarked) [Example 19, 1-cyano-N-(6-methylbenzo[d]thiazol-2-yl)pyrrolidine-3-carboxamide] | 1000 to 10000 nM
9 | Cc1noc(C)c1-c1ccc2nc(NC(=O)[C@H]3CCN(C#N)C3)cn2c1 [Example 128, (S)-1-cyano-N-(6-(3,5-dimethylisoxazol-4-yl)imidazo[1,2-a]pyridin-2-yl)pyrrolidine-3-carboxamide] | < 1000 nM
10 | N#CN1CC[C@H](C(=O)Nc2ncc(-c3ccc(C(F)(F)F)cc3)s2)C1 [Example 68, (S)-1-cyano-N-(5-(4-(trifluoromethyl)phenyl)thiazol-2-yl)pyrrolidine-3-carboxamide] | < 1000 nM

Next, values leading:

Row | IC50 | Structure (SMILES)
11 | 1000 to 10000 nM | N#CN1CCC(C(=O)Nc2cc(-c3ccccc3)ccn2)C1 (centres unmarked) [Example 31, 1-cyano-N-(4-phenylpyridin-2-yl)pyrrolidine-3-carboxamide]
12 | < 1000 nM | Cn1cccc(C(=O)N2CCc3nc(NC(=O)[C@H]4CCN(C#N)C4)sc3C2)c1=O [Example 195, (S)-1-cyano-N-(5-(1-methyl-2-oxo-1,2-dihydropyridine-3-carbonyl)-4,5,6,7-tetrahydrothiazolo[5,4-c]pyridin-2-yl)pyrrolidine-3-carboxamide]
13 | < 1000 nM | C[C@@H]1CN(C#N)C[C@H]1C(=O)Nc1ncc(-c2ccccc2)s1 [Example 82, (3S,4S)-1-cyano-4-methyl-N-(5-phenylthiazol-2-yl)pyrrolidine-3-carboxamide]
14 | 1000 to 10000 nM | Cc1cccc(-n2cnc(NC(=O)[C@H]3CCN(C#N)C3)c2)n1 [Example 175, (S)-1-cyano-N-(1-(6-methylpyridin-2-yl)-1H-imidazol-4-yl)pyrrolidine-3-carboxamide]
15 | < 1000 nM | N#Cc1ccc(-n2cnc(NC(=O)[C@H]3CCN(C#N)C3)c2)cc1OCCCN1CCOCC1 [Example 245, (S)-1-cyano-N-(1-(4-cyano-3-(3-morpholinopropoxy)phenyl)-1H-imidazol-4-yl)pyrrolidine-3-carboxamide]
16 | < 1000 nM | CS(=O)(=O)Nc1cccc(-c2cnc(NC(=O)C3CCN(C#N)C3)s2)c1 (centres unmarked) [Example 116, 1-cyano-N-(5-(3-(methyl-sulfonamido)phenyl)thiazol-2-yl)pyrrolidine-3-carboxamide]
17 | 1000 to 10000 nM | Cc1cccc(-c2ccc(NC(=O)C3CCN(C#N)C3)nc2)c1 (centres unmarked) [Example 135, 1-cyano-N-(5-(m-tolyl)pyridin-2-yl)pyrrolidine-3-carboxamide]
18 | 1000 to 10000 nM | N#CN1CC[C@H](C(=O)Nc2ccc(-c3ccccc3)cn2)C1 [Example 54, (S)-1-cyano-N-(5-phenylpyridin-2-yl)pyrrolidine-3-carboxamide]
19 | < 1000 nM | N#CN1CC[C@H](C(=O)Nc2cn3cc(-c4cnco4)ccc3n2)C1 [Example 276, (S)-1-cyano-N-(6-(oxazol-5-yl)imidazo[1 ,2-a]pyridin-2-yl)pyrrolidine-3-carboxamide]
20 | < 1000 nM | N#CN1CC[C@H](C(=O)Nc2cn(-c3ccccc3)cn2)C1 [Example 41, (S)-1-cyano-N-(1-phenyl-1H-imidazol-4-yl)pyrrolidine-3-carboxamide]
21 | < 1000 nM | COCCOc1ccc(C#N)c(-n2cnc(NC(=O)[C@H]3CCN(C#N)C3)c2)c1 [Example 244, (S)-1-cyano-N-(1-(2-cyano-5-(2-methoxyethoxy)phenyl)-1H-imidazol-4-yl)pyrrolidine-3-carboxamide]
22 | < 1000 nM | N#Cc1ccc(C2CC2)cc1-n1cnc(NC(=O)[C@H]2CCN(C#N)C2)c1 [Example 306, (S)-1-cyano-N-(1-(2-cyano-5-cyclopropylphenyl)-1H-imidazol-4-yl)pyrrolidine-3-carboxamide]
23 | < 1000 nM | N#CN1CCC(C(=O)Nc2ncc(/C=C/C3CC3)s2)C1 (centres unmarked) [Example 113, (E)-1-cyano-N-(5-(2-cyclopropylvinyl)thiazol-2-yl)pyrrolidine-3-carboxamide]
